For orientation: GI50 means the concentration that inhibits growth by half. As usually defined, the IC50 is the concentration at which inhibition is half-maximal.

Each structure is given as a SMILES string. Where “and” joins values, the source holds several entries; their conditions need not be identical. Identical values can stand only once. Entries after “also recorded” stand apart in the source; their conditions may differ. Like-named read-outs stand apart in the source and are kept apart here.

The source of these data is patent US20130090355A1, “CHEMICAL AGENTS FOR THE PREVENTION OF INHIBITION OR TUMOR METASTASIS” (ALBERT EINSTEIN COLLEGE OF MEDICINE OF YESHIVA UNIVERSITY, priority 2010, published 2013).

Series [1] concerns MDA-MB-231 cells. The series can be described thus: MTT cell proliferation / growth inhibition assay. The conditions noted are these: for MTT Assay death: MDA-MB-231, 24 hrs.
Protocol: However, all compounds were tested in a cell proliferation assay to identify cytotoxic compounds and determine compound concentrations that can be used to examine effects on motility and invasion.
EC50 values were determined from sixteen concentration titrations. Growth inhibition of MDA-MB-231 cells, which express high levels of S100A4, was examined in a 96-well plate MTT assay at eight drug concentrations after treatment for 24 hrs.
Series [2] has as its target S100A4/myosin-IIA interaction (Homo sapiens, UniProt P26447). The series can be described thus: Fluorescence polarization assay monitoring the S100A4/myosin-IIA interaction with FITC-MIIA^1908-1923 peptide. It counts as binding. From the text:
An agent that prevents or inhibits the interaction between S100A4 and myosin-IIA may be determined by any method known in the art. For example, a fluorescence polarization assay that monitors the S100A4/myosin-IIA interaction using a fluorescein-tagged myosin-IIA peptide that comprises the minimal S100A4 binding site may be used as described in U.S. application Ser. No. 11/989,901, herein included in full.
A fluorescence polarization assay was developed that monitors the S100A4/myosin-IIA interaction using a fluorescein-tagged myosin-IIA peptide that comprises the minimal S100A4 binding site (FITC-MIIA^1908-1923) (21, 24). […] In collaboration with the Rapid Access to NCI Discovery Resources (R•A•N•D) program, the fluorescence polarization assay was used to screen the LOPAC (1280 compounds) and Maybridge (14,320 compounds) chemical libraries to identify compounds that disrupt the S100A4/myosin-IIA interaction.
EC50 values were determined from sixteen concentration titrations.
(In general: In fluorescence polarisation assays a small probe gives low polarisation when free and higher when bound to something large.)

The test system of series [3] is MDA-MB-231 cells. The series can be described thus: Boyden chamber assay of serum-stimulated chemotaxis. The class given is cell-based. The conditions noted are these: Homo sapiens; MDA-MB-231 chemotaxis towards serum (5% FBS), 24 hr; read-out: EC50 inhibition of serum-stimulated migration. The method, then: FIG. 4. Boyden chamber assay examining the effects of lead compounds on MDA-MB-231 chemotaxis. Cells were serum starved for 5 hrs and plated into the upper chamber of a transwell in serum-free medium. Complete medium (5% FBS) was added to the lower chamber and the cells were allowed to migrate for 24 hr. Cells that penetrated the filter were stained with DAPI and quantified by fluorescence microscopy using 10 fields per filter.
As proof-of-principle that S100A4 inhibitors affect the motile and invasive capabilities of carcinoma cells, cell migration assays examining the ability of NSC 5069 and XAX 00168 to inhibit chemotaxis of MDA-MB-231 cells towards serum in a Boyden chamber assay were initiated (FIG. 4). Both NSC 5069 and XAX 00168 inhibit serum-stimulated migration to varying extents with EC50 values of approximately 40 and 20 μM for NSC 5069 and XAX 00168, respectively.

For another series, the target named is C81S/C86S S100A4 (Homo sapiens, UniProt P26447, C81S/C86S). The series can be described thus: Mass spectrum of C81S/C86S S100A4 after treatment with compound (covalent modification). The conditions noted are these: Cys81 and Cys86 substituted with serine. From the text: (§1) FIG. 3A-3D. Mass spectrum of wild-type S100A4 (A) and following treatment with NSC 95397 (B). Mass spectrum of C81S/C86S S100A4 (C) and following treatment with NSC 95397 (D).
Sequence of C81S/C86S S100A4 (P26447 whole entry C81S/C86S, one chain of several): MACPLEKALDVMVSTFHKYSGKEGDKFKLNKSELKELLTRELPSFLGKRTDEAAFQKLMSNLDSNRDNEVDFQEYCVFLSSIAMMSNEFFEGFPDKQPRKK

Another series deals with wild-type S100A4 (Homo sapiens, UniProt P26447). The series can be described thus: Mass spectrum of wild-type S100A4 after treatment with compound (covalent modification).
Sequence of wild-type S100A4 (P26447 whole entry, one chain of several): as the sequence (P26447 whole entry C81S/C86S, one chain of several) above, with S81C, S86C counted along it
From the text: as §1

The next series has as its target C3R/C81S/C86S S100A4 (Homo sapiens, UniProt P26447, C3R/C81S/C86S). The series can be described thus: Myosin-IIA binding to C3R/C81S/C86S S100A4.
The mark [4] stands for this setting: Table 1, sixteen concentration titrations, read-out: EC50.
[5] abbreviates: read-out: EC50 (inhibition of the S100A4/myosin-IIA interaction).

Sequence of S100A4/myosin-IIA interaction (P26447 whole entry, one chain of several): as the sequence (P26447 whole entry C81S/C86S, one chain of several) above, with S81C, S86C counted along it
Sequence of C3R/C81S/C86S S100A4 (P26447 whole entry C3R/C81S/C86S, one chain of several): as the sequence (P26447 whole entry C81S/C86S, one chain of several) above, with C3R counted along it

As for `O=C1C2=C(SCCS2)C(=O)c2ccccc21` [NSC55480, 2,3-dihydrobenzo[g][1,4]benzodithiine-5,10-dione], the “MTT Assay death” value in the series on MDA-MB-231 cells [1] (@ 2.5 μM) amounted to 100% death @ 2.5 μM.
In the case of `O=C1C(=O)c2cccc([N+](=O)[O-])c2-c2ccccc21` [NSC10204, 4-nitrophenanthrene-9,10-dione], in the series on MDA-MB-231 cells [1] (at 100 μM), the “MTT Assay death” value was 80% death at 100 μM.
As for `O=Nc1c(O)c2ccccc2c2ccc([N+](=O)[O-])cc12` [NSC402968], in series [2] (setting [4]), the EC50 was found to be 17 µM.
For the molecule `O=C(O)CC1OCC=C2CN3CCC45C6=CC(=O)C(=O)C([N+](=O)[O-])=C6NC4C1C2CC35` (stereo not drawn) [NSC5069, Cacotheline], in the series on MDA-MB-231 cells [1] (MDA-MB-231, eight drug concentrations, 24 hrs), the “MTT Assay toxicity” value is reported as “did not exhibit toxicity; also recorded: no toxicity detected”. Also, the EC50 in series [2] (setting [4]) was 19 µM; in series [2] (setting [5]), 19 µM; with MDA-MB-231 cells [3], about 40 µM.
Regarding `O=C1C(SCCO)=C(SCCO)C(=O)c2ccccc21` [NSC95397, 2,3-bis(2-hydroxyethylsulfanyl)naphthalene-1,4-dione], the entries for the “covalent modification of S100A4 (mass)” value at C81S/C86S S100A4 and on wild-type S100A4 were “prevented modification” and “modification of each monomer at two residues”, respectively. Besides, the “MTT Assay death” value with MDA-MB-231 cells [1] (@ 2.5 μM) is given as 100% death @ 2.5 μM. In addition, the EC50 in series [2] (setting [5]) is 7.6 µM.
As to `CSc1sc(C(=O)NN)cc1-c1nc(C)cs1` [Maybridge KM03663, 5-methylsulfanyl-4-(4-methyl-1,3-thiazol-2-yl)thiophene-2-carbohydrazide], in the series on MDA-MB-231 cells [1] (at 150 μM), the “MTT Assay death” value was found to be 100% death at 150 μM. In addition, the EC50 in series [2] (setting [5]) was in the range of 38 to 46 µM.
Regarding `O=C1C(=O)c2cc([N+](=O)[O-])ccc2-c2ccccc21` [NSC5425/ NSC23180, 2-nitrophenanthrene-9,10-dione], the “MTT Assay death” value in the series with MDA-MB-231 cells [1] (@ 10 μM) is 100% death @ 10 μM.
As for `Cc1oc(-c2ccc(Cl)cc2)cc1C(=O)/C(C#N)=C/c1ccccc1` [Maybridge SP00172, 2-{[5-(4-chlorophenyl)-2-methyl-3-furyl]carbonyl}-3-phenylacrylonitrile], in the series on MDA-MB-231 cells [1] (at 50 μM), the “MTT Assay death” value is on record as 100% death at 50 μM. Also, the EC50 in series [2] (setting [5]) lay within 38 to 46 µM.
As to `O=C1C(=O)c2ccccc2-c2ccccc21` [NSC10446/ NSC7389, Phenanthrene-9,10-dione], in the series with MDA-MB-231 cells [1] (@ 25 μM), the “MTT Assay death” value was 100% death @ 25 μM.
With `O=C1C(=O)c2cc(Cl)ccc2-c2ccccc21` [NSC102363, 2-chlorophenanthrene-9,10-dione], the “MTT Assay death” value with MDA-MB-231 cells [1] (@ 10 μM) is recorded as 100% death @ 10 μM.
Turning to `O=C1c2ccccc2-c2ccccc2C1(Cl)Cl` [NSC6339/ NSC135154, 10,10-dichlorophenanthren-9-one], the “MTT Assay death” value with MDA-MB-231 cells [1] (@ 2.5 μM) is 100% death @ 2.5 μM.
Consider `CSCC[C@H](NC(=O)[C@H](C)NC(=O)[C@H](CC(=O)O)NC(=S)Nc1ccc2c(c1)C(=O)OC21c2ccc(O)cc2Oc2cc(O)ccc21)C(=O)N[C@@H](CC(N)=O)C(=O)N[C@@H](CCCNC(=N)N)C(=O)N[C@@H](CCC(=O)O)C(=O)N[C@H](C(=O)N[C@@H](CO)C(=O)N[C@@H](CO)C(=O)N[C@@H](CC(C)C)C(=O)N[C@@H](CCCCN)C(=O)N[C@@H](CC(N)=O)C(=O)N[C@@H](CCCCN)C(=O)N[C@@H](CC(C)C)C(=O)N[C@@H](CCCNC(=N)N)C(=O)N[C@@H](CCCNC(=N)N)C(=O)O)C(C)C` [FITC-MIIA^1908-1923], for which the myosin-IIA binding entry on C3R/C81S/C86S S100A4 is “undetectable”.
As for `[H]/N=C1\C(=O)c2ccccc2-c2ccccc21` [NSC139152, 10-iminophenanthren-9-one], the EC50 in series [2] (setting [4]) amounted to 4.3 µM.
For the molecule `CC(=O)c1ccc2c(c1)-c1ccccc1C(=O)C2=O` [NSC400689, 3-acetylphenanthrene-9,10-dione], the “MTT Assay death” value in the series with MDA-MB-231 cells [1] (@ 2.5 μM) is reported as 100% death @ 2.5 μM.
`O=C1NC(=S)S/C1=C\c1cc([N+](=O)[O-])ccc1Sc1ccc(C(F)(F)F)cn1` [Maybridge XAX00168, 5-(5-nitro-2{[5-(trifluoromethyl)-2-pyridyl]thio}benzylidene)-2-thioxo-1,3-thiozolan-4-one]: the GI50 with MDA-MB-231 cells [1] (Homo sapiens, MDA-MB-231) was 190 µM. Moreover, the IC50 with MDA-MB-231 cells [1] (Homo sapiens, MDA-MB-231, 24 h, read-out: MTT Assay IC50) amounted to 190 µM. For the same molecule, the EC50 in series [2] (setting [4]) was 46 µM; in series [2] (setting [5]) it was 38 to 46 µM and 46 µM; with MDA-MB-231 cells [3] it was about 20 µM.
